Measurements: patent US11980596B2 (priority 2017, dated 2024)

Legend:
[1] = test system: subjects with MDD at imminent risk for suicide; format: in vivo, human; details: post dose
Protocol: Transient blood pressure increases peaked for the esketamine group at approximately 40 minutes post dose with the maximum mean increases (across all dosing days) in systolic BP being 8.7 in the placebo group and 16.7 in the esketamine 84 mg group. The maximum mean increases (across all dosing days) in diastolic BP were 7.6 in the placebo group and 11.9 in the esketamine 84 mg group. […] See, FIGS. 46 and 47.

[2] = 14-day; 54 mg/day
Protocol: This study includes a single dose and 14-day repeated dose neurotoxicity studies with intranasally administered esketamine in female rats 12 to 14 weeks of age. These studies were conducted to investigate whether single or repeated intranasal administrations of esketamine induced neurodegenerative changes in the rat brain. The study results were used to estimate an esketamine exposure-based safety margin compared with the maximum dose of esketamine administered intranasally to depressed adult patients in clinical trials.
Each group of main study animals consisted of 12 female rats. Four satellite animals were added to the esketamine HCl-dosed groups of main study animals for TK purposes. The plasma exposure to esketamine was measured in these animals on the first and the last day of dosing at various time points up to and including 24 hours after the first instillation.

[3] = test system: patients with treatment-resistant depression (TRD); test: GAD-7 (Example 7); format: in vivo, human
Protocol: Overall illness severity was assessed on the Clinical Global Impression of Severity (CGI-S) scale (Guy, “ECDEU Assessment Manual for Psychopharmacology—Revised (DHEW Publ No ADM 76-338)”, Rockville, Md.: U.S. Department of Health, Education, and Welfare, Public Health Service, Alcohol, Drug Abuse, and Mental Health Administration, NIMH Psychopharmacology Research Branch, Division of Extramural Research Programs; 1976, pp 218-222). Participants assessed their severity of anxiety on the Generalized Anxiety Disorder 7-item (GADS-7) Scale (See, Tables 157 and 158). See, Spitzer, “A brief measure for assessing generalized anxiety disorder—the GAD-7”, Arch. Intern. Med., 2006, 166(10): 1092-1097.

[4] = test system: patients with treatment-resistant depression (TRD); test: Vital signs: blood pressure and heart rate (Example 7); format: in vivo, human; details: post-dose
Protocol: (§1) Adverse events were monitored throughout the study. Other safety assessments (i.e., laboratory tests, vital signs, physical examination) were performed at pre-specified time points. Vital signs, the Clinician Administered Dissociative States Scale (CADSS; Bremner, “Measurement of dissociative states with the clinician-administered dissociative states scale (CADSS)”, J. Traumatic Stress, 1998, 11(1):125-136), and the 4-item positive symptom subscale from the Brief Psychiatric Rating Scale (BPRS; Overall, “The Brief Psychiatric Rating Scale. Psychological Reports”, 1962, 10:799-812) were assessed pre-dose, at 40 minutes, and 2 hours post-dose.

[5] = test system: patients with treatment-resistant depression (TRD); test: CADSS (Example 7); details: human, in vivo, other: intranasal
Protocol: as §1

[6] = Pharmacokinetics of esketamine nasal spray, 14 Phase 1 studies (Example 10); details: young adult subjects
Protocol: The data herein was assembled from 14 Phase 1 studies; each Phase 1 study was performed similarly to the study outlined in Example 9 in which the PK of esketamine was assessed.

[7] = test system: patients with TRD; test: Sedation by MOAA/s in SPRAVATO clinical trials (label); format: in vivo, human; details: after dosing
Protocol: In clinical trials, 49% to 61% of SPRAVATO-treated patients developed sedation based on the Modified Observer's Alertness/Sedation scale (MOAA/s) [see Adverse Reactions (6.1)], and 0.3% of SPRAVATO-treated patients experienced loss of consciousness (MOAA/s score of 0).
Sedation was evaluated by adverse event reports and using the Modified Observer's Alertness/Sedation scale (MOAA/s). In the MOAA/s scale, 5 means “responds readily to name spoken in normal tone” and 0 means “no response after painful trapezius squeeze.” Any decrease in MOAA/s from pre-dose is considered to indicate presence of sedation, and such a decrease occurred in a higher number of patients on esketamine than placebo during the short-term trials (Table 4).

[8] = Fertility study in male and female rats; format: in vivo, rat; details: both sexes, rat, in vivo, inhaled or intranasal; read-out: NOAEL for mating and fertility
Protocol: (§2) The No Observed Adverse Effect Level (NOAEL) for mating and fertility is 45 mg/kg/day which is 0.6 times the esketamine exposures at MRHD of 84 mg/day.

[9] = test system: male and female rats; test: Fertility study in male and female rats; format: in vivo, rat
Protocol: as §2

[10] = test system: adult subjects with TRD; details: post dose
Protocol: Blood pressure and pulse/heart rate measurements were assessed supine with a completely automated device. Manual techniques were used only if an automated device is not available. Blood pressure and pulse/heart rate measurements were preceded by at least 5 minutes of rest in a quiet setting without distractions (e.g., television, cell phones).
Descriptive statistics of temperature, pulse/heart rate, respiratory rate, pulse oximetry, and blood pressure (systolic and diastolic) (supine) values and changes from baseline were summarized at each scheduled time point. The percentage of subjects with values beyond clinically important limits were summarized.

[11] = test system: adult subjects with TRD; details: post dose; remark: listed apart in the source
Protocol: The CADSS is an instrument for the measurement of present-state dissociative symptoms, and was administered to assess treatment-emergent dissociative symptoms. The CADSS consists of 23 subjective items, divided into 3 components: Depersonalization (Items 3 to 7, 20, and 23), derealization (Items 1, 2, 8 to 13, 16 to 19, and 21) and amnesia (Items 14, 15, and 22). Participant's responses were coded on a 5-point scale (0=not at all through to 4=extremely).
The Clinician Administered Dissociative States Scale (CADSS) was measured prior to the start of each dose, at 40 minutes, and 1.5 hours postdose.

[12] = test system: subjects with MDD at imminent risk for suicide; details: post dose
Protocol: The CADSS was measured prior to the start of each dose, at 40 minutes, 2 hours, and 4 hours postdose.

[13] = test system: CYPs and UGTs
[14] = test system: glutamate NMDA receptor; details: cited from earlier work
[15] = Screening in vitro micronucleus test; details: in the presence of metabolic activation
[16] = test system: CYP2B6 and CYP3A4 and to a lesser extent CYP2C9 and CYP2C19; test: Metabolism by cytochrome P450 enzymes; details: human
[17] = Clinical pharmacokinetics of esketamine (label)
[18] = test system: adult female rats; test: Second single dose neurotoxicity study (neuronal necrosis), intranasal esketamine (label); details: 200-gram rat
[19] = human, plasma, other: nasal spray

Structure (SMILES): CN[C@]1(c2ccccc2Cl)CCCCC1=O [esketamine, (S)-2-(2-chlorophenyl)-2-(methylamino)cyclohexanone]
- Blood pressure returning to normal range by [1]: ≤ 2 h
- AUC-based safety margin compared with the maximum 84 mg clinical dose [2]: ~11 fold
- Cmax-based safety margin compared with the maximum 84 mg clinical dose [2]: approximately 17 fold
- GAD-7 change from baseline, LS mean (SE) ([3]; Period 1, esketamine 28 mg intranasal): −1.5 (1.34)
- GAD-7 change from baseline, LS mean (SE) ([3]; Period 1, esketamine 56 mg intranasal): −3.1 (1.34)
- GAD-7 change from baseline, LS mean (SE) ([3]; Period 1, esketamine 84 mg intranasal): −5.1 (1.30)
- GAD-7 change from baseline, LS mean (SE) ([3]; Period 2, esketamine 28 mg intranasal): −1.6 (0.87)
- GAD-7 change from baseline, LS mean (SE) ([3]; Period 2, esketamine 56 mg intranasal): 1.0 (0.98)
- GAD-7 change from baseline, LS mean (SE) ([3]; Period 2, esketamine 84 mg intranasal): −0.9 (1.02)
- Elevated blood pressure returned to the normal range by [4]: ≤ 2 h
- Perceptual changes/dissociative symptoms (CADSS): time of peak [5]: 30 to 40 min
- Tmax, range of median values ([6]; single dose esketamine nasal spray 28 mg, n = 64): 19.8 to 40.2 min
- Tmax, range of median values ([6]; single dose esketamine nasal spray 56 mg, n = 86): 30 to 46.2 min
- Tmax, range of median values ([6]; single dose esketamine nasal spray 84 mg, n = 167): 31.8 to 49.8 min
- Sedative effects typically resolved by [7]: ≤ 1.5 h
- NOAEL [8]: 45 mg/kg/day
- Mean AUC exposure, multiple of the MRHD of 84 mg/day ([9]; 4.5 mg/kg/day intranasal): approximately 0.05 times
- Mean AUC exposure, multiple of the MRHD of 84 mg/day ([9]; 15 mg/kg/day intranasal): ~0.3 times
- Mean AUC exposure, multiple of the MRHD of 84 mg/day ([9]; 45 mg/kg/day intranasal): ~0.6 times
- Blood pressure returned to normal range at [10]: 90 min
- Time of peak of transient blood pressure increases [10]: approximately 40 minutes
- Dissociative and perceptual change symptoms (CADSS) resolved by [11]: ≤ 1.5 h
- Dissociative and perceptual change symptoms (CADSS) resolved by [12]: ≤ 2 h
- S-Ketamine QC sample long-term storage stability (at −20° C.): 707 days at −20 °C
- S-Ketamine QC sample freeze/thaw stability (freeze (−20° C.)/thaw (room temperature)): 3 freeze (−20° C.)/thaw (room temperature) cycles
- S-Ketamine QC sample bench-top stability (room temperature): 18 hours at room temperature
- Inhibition potential against CYPs and UGTs [13]: did not show inhibition potential
- Affinity for the glutamate NMDA receptor in vitro, fold greater than R-ketamine [14]: 3 to 4 fold
- Genotoxicity [15]: Genotoxic effects
- Metabolic pathway [16]: primarily metabolized to noresketamine metabolite via cytochrome P450 (CYP) enzymes CYP2B6 and CYP3A4
- Time to reach maximum plasma concentration ([17]; after the last nasal spray of a treatment session): 20 to 40 min
- Presence in human milk ([17]; human, in vivo): present in human milk
- bioavailability ([17]; human, plasma, inhaled or intranasal): ~48%
- clearance ([17]; human, plasma, iv): ~1480 mL/min
- Inter-subject variability, AUC∞ [17, 19]: 18% to 45
- Inter-subject variability, Cmax [17, 19]: 27% to 66
- Intra-subject variability, AUC∞ [17, 19]: ~10%
- Intra-subject variability, Cmax [17, 19]: approximately 15%
- Dose excreted as unchanged drug in urine ([17]; nasal): Less than 1%
- Accumulation in plasma ([17]; twice a week administration): No accumulation
- Highest dose equivalent with no findings of neuronal necrosis [18]: 270 mg/kg
